This note sets out measurements from ChEMBL document CHEMBL1201862, “PubChem BioAssay data set” (2004).

SMILES strings stand for the structures. Activity calls are given as the source filed them.

For assay [1], the target named is T1, Sphingosine 1-phosphate receptor 4 (Homo sapiens, UniProt O95977).
T1 sequence (O95977 whole entry): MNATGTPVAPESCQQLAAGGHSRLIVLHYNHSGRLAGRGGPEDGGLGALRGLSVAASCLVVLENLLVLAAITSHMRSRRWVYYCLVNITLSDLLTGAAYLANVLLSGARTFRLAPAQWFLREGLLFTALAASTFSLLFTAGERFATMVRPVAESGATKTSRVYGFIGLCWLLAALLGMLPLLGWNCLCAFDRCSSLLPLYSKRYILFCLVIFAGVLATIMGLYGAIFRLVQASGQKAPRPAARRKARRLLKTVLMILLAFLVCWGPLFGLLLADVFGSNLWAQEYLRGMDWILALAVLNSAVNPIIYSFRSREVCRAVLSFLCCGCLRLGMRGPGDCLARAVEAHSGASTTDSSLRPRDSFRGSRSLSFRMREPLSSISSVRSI
As to the kind of experiment: Late stage fluorescence dose response cell-based screening assay for antagonists of the Sphingosine 1-Phosphate Receptor 4 (S1P4). [Related pubchem assays: 1524 (Confirmation screen (S1P4 antagonists).), 1510 (Primary screen (S1P4 antagonists).), 1853 (Summary AID (S1P4 antagonists).), 1692 (Dose response screen (S1P4 antagonists).)]. It counts as functional.

In another assay the target is Beta Lactamase (Pseudomonas aeruginosa, UniProt Q932Y6). Put plainly: beta-lactamase reporter inhibitor potency, dose response, artefact control for NOD2-RIPK2 interaction inhibitor project, BLA reporter cells, FRET fluorescence (AID 651552). It counts as functional, cell-based.
Chain of Beta Lactamase (Q932Y6 whole entry): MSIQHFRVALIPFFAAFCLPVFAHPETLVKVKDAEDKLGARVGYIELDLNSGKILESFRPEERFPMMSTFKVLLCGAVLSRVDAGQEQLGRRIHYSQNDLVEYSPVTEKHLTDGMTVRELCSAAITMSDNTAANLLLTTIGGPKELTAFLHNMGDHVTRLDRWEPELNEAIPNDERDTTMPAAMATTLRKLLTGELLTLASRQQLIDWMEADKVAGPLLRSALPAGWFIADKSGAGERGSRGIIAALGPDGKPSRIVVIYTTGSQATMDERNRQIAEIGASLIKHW
The target in the next assay is T2, Hexokinase HKDC1 (Homo sapiens, UniProt Q2TB90).
T2 sequence (Q2TB90 whole entry): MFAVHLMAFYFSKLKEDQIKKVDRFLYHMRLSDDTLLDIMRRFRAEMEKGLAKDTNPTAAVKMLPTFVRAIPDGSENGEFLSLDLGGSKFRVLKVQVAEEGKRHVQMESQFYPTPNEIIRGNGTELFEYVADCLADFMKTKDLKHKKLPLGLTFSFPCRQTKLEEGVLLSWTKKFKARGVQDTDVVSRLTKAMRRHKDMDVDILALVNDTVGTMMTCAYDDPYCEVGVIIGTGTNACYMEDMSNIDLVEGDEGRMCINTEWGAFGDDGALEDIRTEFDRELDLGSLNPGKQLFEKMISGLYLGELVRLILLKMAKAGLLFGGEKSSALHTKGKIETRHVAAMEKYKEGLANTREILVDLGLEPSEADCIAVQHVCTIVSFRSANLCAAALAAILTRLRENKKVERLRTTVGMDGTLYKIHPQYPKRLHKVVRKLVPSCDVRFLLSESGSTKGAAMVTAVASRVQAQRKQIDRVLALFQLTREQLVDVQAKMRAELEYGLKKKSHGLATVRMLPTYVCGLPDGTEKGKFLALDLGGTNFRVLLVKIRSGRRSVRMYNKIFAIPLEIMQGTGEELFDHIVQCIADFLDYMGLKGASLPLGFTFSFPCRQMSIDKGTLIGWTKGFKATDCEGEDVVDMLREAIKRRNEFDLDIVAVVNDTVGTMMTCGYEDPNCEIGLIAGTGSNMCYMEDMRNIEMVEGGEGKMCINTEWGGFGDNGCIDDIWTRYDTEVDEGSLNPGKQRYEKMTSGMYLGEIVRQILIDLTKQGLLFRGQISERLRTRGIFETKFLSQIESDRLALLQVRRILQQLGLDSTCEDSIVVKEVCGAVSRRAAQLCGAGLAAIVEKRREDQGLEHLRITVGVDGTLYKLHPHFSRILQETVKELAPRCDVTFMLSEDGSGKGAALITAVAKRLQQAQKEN
Put plainly: HKDC1 hexokinase activators, dose response, biochemical, W721R variant (AID 504730). It counts as functional.

Assay [2] is described as follows: THP-1 cell cytotoxicity, dose response, cytotoxicity control for Vif-APOBEC3G degradation inhibitor project, THP-1 cells (AID 1117359). It counts as functional. Particulars: Human immunodeficiency virus 1, THP-1.
Assay [3] concerns the target T3, 1-phosphatidylinositol 4,5-bisphosphate phosphodiesterase gamma-1 (Homo sapiens, UniProt P19174).
T3 sequence (P19174 whole entry): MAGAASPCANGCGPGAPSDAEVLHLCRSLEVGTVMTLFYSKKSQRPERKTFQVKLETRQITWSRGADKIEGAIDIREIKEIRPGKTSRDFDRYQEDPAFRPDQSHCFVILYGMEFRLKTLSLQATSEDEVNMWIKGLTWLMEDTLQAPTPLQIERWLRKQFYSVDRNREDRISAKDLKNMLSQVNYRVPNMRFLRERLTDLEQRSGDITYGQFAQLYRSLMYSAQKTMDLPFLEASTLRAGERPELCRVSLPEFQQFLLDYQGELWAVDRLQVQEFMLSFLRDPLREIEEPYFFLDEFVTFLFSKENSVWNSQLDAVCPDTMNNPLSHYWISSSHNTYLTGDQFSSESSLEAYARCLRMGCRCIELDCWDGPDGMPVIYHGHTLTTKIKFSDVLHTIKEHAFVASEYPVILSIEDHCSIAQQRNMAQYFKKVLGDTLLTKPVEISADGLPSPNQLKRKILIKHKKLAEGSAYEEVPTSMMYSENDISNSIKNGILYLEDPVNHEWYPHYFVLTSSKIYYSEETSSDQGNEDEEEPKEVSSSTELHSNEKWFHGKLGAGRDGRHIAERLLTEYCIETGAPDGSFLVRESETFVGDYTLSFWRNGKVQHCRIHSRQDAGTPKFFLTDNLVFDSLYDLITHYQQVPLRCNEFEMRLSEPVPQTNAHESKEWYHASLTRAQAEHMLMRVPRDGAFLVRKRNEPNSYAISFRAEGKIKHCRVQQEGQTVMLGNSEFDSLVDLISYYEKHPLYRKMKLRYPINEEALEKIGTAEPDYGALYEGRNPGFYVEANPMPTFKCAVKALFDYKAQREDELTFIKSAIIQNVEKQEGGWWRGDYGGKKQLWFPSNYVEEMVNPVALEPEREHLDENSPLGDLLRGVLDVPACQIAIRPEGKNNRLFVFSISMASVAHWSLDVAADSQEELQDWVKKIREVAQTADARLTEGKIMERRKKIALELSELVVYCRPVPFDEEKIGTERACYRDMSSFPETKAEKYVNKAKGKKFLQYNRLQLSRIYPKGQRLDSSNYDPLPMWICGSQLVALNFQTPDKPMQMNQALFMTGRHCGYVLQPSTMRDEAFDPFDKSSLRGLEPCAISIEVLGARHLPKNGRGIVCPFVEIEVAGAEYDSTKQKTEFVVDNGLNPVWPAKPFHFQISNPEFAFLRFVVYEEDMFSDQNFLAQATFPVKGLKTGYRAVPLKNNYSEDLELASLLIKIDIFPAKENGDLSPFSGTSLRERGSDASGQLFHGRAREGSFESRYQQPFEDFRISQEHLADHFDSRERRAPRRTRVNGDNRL
As to the kind of experiment: Counterscreen for inhibitors of phospholipase C isozymes (PLC-B3): Fluorescence-based biochemical high throughput dose response assay to identify inhibitors of phospholipase C isozymes (PLC-gamma1). Background: Counterscreens check selectivity or assay interference.

The nature of assay [4]: CEM21 lymphoblast cell cytotoxicity, dose response, cytotoxicity control for viral fusion inhibitor project, CellTiter-Glo luminescence, cherry-picked (AID 652042).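 Also: potency for signal decrease meaning cytotoxicity.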 It counts as functional, cell-based. On the technique in general: ATP-based viability assays read luminescence as a measure of living cells.
For assay [5], the target named is Vascular endothelial growth factor receptor 3 (Homo sapiens, UniProt P35916). It counts as functional.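 Also: value from a kinome-wide profiling panel, with FLT4 as the panel member.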
Chain of Vascular endothelial growth factor receptor 3 (P35916 whole entry): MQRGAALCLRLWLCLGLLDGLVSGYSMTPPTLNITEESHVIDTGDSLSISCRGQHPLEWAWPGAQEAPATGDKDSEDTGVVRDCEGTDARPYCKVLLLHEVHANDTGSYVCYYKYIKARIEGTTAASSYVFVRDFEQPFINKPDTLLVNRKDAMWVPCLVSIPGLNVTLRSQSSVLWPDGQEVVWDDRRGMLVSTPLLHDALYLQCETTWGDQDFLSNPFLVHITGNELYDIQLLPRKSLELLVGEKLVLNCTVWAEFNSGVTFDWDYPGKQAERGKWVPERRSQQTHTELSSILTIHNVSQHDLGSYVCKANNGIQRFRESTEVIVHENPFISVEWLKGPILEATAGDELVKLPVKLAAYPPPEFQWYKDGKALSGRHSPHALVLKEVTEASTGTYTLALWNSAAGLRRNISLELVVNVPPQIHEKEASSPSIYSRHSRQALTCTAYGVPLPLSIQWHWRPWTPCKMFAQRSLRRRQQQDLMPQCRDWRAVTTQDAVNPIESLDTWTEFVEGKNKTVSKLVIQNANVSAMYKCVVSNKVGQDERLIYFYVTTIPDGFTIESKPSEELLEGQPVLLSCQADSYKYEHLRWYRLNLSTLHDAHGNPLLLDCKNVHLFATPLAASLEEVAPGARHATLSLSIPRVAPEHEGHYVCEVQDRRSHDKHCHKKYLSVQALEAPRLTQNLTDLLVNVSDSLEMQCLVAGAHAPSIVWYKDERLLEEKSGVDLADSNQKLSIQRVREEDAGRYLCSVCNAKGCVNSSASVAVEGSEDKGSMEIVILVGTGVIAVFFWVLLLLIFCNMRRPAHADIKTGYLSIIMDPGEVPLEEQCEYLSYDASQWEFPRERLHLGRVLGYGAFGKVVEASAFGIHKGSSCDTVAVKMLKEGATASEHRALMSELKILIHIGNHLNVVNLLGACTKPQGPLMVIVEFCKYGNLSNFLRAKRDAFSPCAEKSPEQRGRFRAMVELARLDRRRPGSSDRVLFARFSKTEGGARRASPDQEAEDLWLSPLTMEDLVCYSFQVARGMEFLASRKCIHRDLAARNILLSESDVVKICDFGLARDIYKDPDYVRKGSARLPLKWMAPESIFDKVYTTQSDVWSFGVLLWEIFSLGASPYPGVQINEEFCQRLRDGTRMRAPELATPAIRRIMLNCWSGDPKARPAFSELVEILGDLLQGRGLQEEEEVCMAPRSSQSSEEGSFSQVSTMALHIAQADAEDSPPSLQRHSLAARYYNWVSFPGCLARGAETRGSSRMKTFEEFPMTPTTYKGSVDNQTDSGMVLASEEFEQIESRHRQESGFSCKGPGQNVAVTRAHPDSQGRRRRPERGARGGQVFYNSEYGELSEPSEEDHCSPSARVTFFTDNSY

A word on the IC50: it is the concentration that gives 50% inhibition. As for `COC(=O)CCS(=O)(=O)c1nc(-c2ccccc2)cc(C(F)(F)F)n1`, the concentration for half-maximal inhibition (IC50) in assay [1] is 3.45 µM (not active); on Beta Lactamase it was 16.4 µM (inactive).

One may read the EC50 as the midpoint of the concentration-response curve. As for `O=C(O)c1ccc(NC2=C(Cl)C(=O)c3ccccc3C2=O)cc1`, the concentration for a half-maximal effect (EC50) on Hexokinase HKDC1 was 5.62 µM (active).

One may read the CC50 as the concentration that lowers cell viability or growth by half. The AC50 is the midpoint of the concentration-response curve, whichever way the signal moves. Consider `CCOC(=O)c1c2c(n(Cc3ccccc3)c1C)C(=O)C(=O)c1ccccc1-2`, for which the CC50 in assay [2] was 0.87 µM (active). Further, the IC50 in assay [3] was 28.3 µM (inactive). The AC50 in assay [4] was 5.84 µM (active).

The term Ki denotes the equilibrium dissociation constant of an inhibitor or competing ligand from its target. As for `Cc1ccc2nccc(NC(=O)Nc3cccc(C(F)(F)F)n3)c2c1`, the inhibitory constant (Ki) in assay [5] is 1 µM (active).
